Experimental data from patent US7964531B2, “3-phenoxy-4-pyridazinol derivatives and herbicidal composition containing the same” (Mitsui Chemicals Agro, Inc., priority 2001, dated 2011).

Experiments:
Format in all cases: in vivo
Conditions in all cases: wettable powder applied 3 days after transplanting, judged after 25 days
[1] = test system: annual broad-leaved weeds (Lindernia spp., Rotala indica); assay: Test Example 1: herbicidal effects, paddy-field pot test
Experimental: (§1) A paddy soil was filled in 1/10,000 are pot, and seeds of barnyardgrass (Echinochloa oryzicola Vasing.), Scirpus joncoides and annual broad-leaved weeds (Lindernia spp., Rotala indica) which are awaken from dormancy were mixed at the surface layer of 1 cm. Also, tuber of Cyperus serotinus which is germinated was planted, and further seedlings of paddy-field rice at 2.2-leaf stage were transplanted, and they were grown under the flooded condition in a greenhouse. After 3 days from transplanting, a predetermined chemical dosage of the wettable powder prepared in accordance with Preparation example 1 was diluted in water, and the solution was applied to the pot and herbicidal effects and crop injury against transplanted paddy-field rice were judged after 25 days from the treatment. Also, 3-(2-allylphenoxy)-6-chloro-4-methoxypyridazine described in Chemical Pharmaceutical Bulletin, 1972, vol. 20, No. 10, pp. 2191-2203 was used as Comparative compound. Incidentally, herbicidal effects and crop injury against transplanted paddy-field rice were judged by the following judgment standard, and “-” in the table means no test was carried out.
(§2) Judgment Standard • 0: Growth inhibition rate; 0 to 10% • 1: Growth inhibition rate; 11 to 30% • 2: Growth inhibition rate; 31 to 50% • 3: Growth inhibition rate; 51 to 70% • 4: Growth inhibition rate; 71 to 90% • 5: Growth inhibition rate; 91 to 100%.

[2] = test system: Cyperus serotinus; assay: as above
Experimental: as §1, §2

[3] = test system: Scirpus joncoides; assay: as above
Experimental: as §1, §2

[4] = test system: barnyardgrass (Echinochloa oryzicola Vasing.); assay: as above
Experimental: as §1, §2

[5] = test system: transplanted paddy-field rice; assay: Test Example 1: crop injury against transplanted paddy-field rice
Experimental: as §1, §2

Row | SMILES | Herbicidal effects Broad leaf ([1]; chemical dosage 12.5 g/a) | Herbicidal effects Broad leaf ([1]; chemical dosage 25 g/a) | Herbicidal effects Cyperus serotinus ([2]; chemical dosage 12.5 g/a) | Herbicidal effects Cyperus serotinus ([2]; chemical dosage 25 g/a) | Herbicidal effects Scirpus joncoides ([3]; chemical dosage 12.5 g/a) | Herbicidal effects Scirpus joncoides ([3]; chemical dosage 25 g/a) | Herbicidal effects Barnyard grass ([4]; chemical dosage 12.5 g/a) | Herbicidal effects Barnyard grass ([4]; chemical dosage 25 g/a) | Crop injury against transplanted rice ([5]; chemical dosage 12.5 g/a) | Crop injury against transplanted rice ([5]; chemical dosage 25 g/a) | Herbicidal effects Broad leaf ([1]; chemical dosage 10 g/a) | Herbicidal effects Broad leaf ([1]; chemical dosage 20 g/a) | Herbicidal effects Cyperus serotinus ([2]; chemical dosage 10 g/a) | Herbicidal effects Cyperus serotinus ([2]; chemical dosage 20 g/a) | Herbicidal effects Scirpus joncoides ([3]; chemical dosage 10 g/a) | Herbicidal effects Scirpus joncoides ([3]; chemical dosage 20 g/a) | Herbicidal effects Barnyard grass ([4]; chemical dosage 10 g/a) | Herbicidal effects Barnyard grass ([4]; chemical dosage 20 g/a) | Crop injury against transplanted rice ([5]; chemical dosage 10 g/a) | Crop injury against transplanted rice ([5]; chemical dosage 20 g/a)
1 | Oc1cc(Cl)nnc1Oc1ccccc1F [Example 49] | 3 (Growth inhibition rate; 51 to 70%) | 5 (Growth inhibition rate; 91 to 100%) | 5 (Growth inhibition rate; 91 to 100%) | 5 (Growth inhibition rate; 91 to 100%) | 3 (Growth inhibition rate; 51 to 70%) | 4 (Growth inhibition rate; 71 to 90%) | 1 (Growth inhibition rate; 11 to 30%) | 2 (Growth inhibition rate; 31 to 50%) | 0 (Growth inhibition rate; 0 to 10%) | 0 (Growth inhibition rate; 0 to 10%) |  |  |  |  |  |  |  |  |  | 
2 | Cc1ccc(C2CC2)c(Oc2nnc(Cl)cc2O)c1 [Example 218] |  |  |  |  |  |  |  |  |  |  | 5 (Growth inhibition rate; 91 to 100%) | 5 (Growth inhibition rate; 91 to 100%) | 5 (Growth inhibition rate; 91 to 100%) | 5 (Growth inhibition rate; 91 to 100%) | 5 (Growth inhibition rate; 91 to 100%) | 5 (Growth inhibition rate; 91 to 100%) | 0 (Growth inhibition rate; 0 to 10%) | 1 (Growth inhibition rate; 11 to 30%) | 0 (Growth inhibition rate; 0 to 10%) | 0 (Growth inhibition rate; 0 to 10%)
3 | Cc1ccccc1Oc1nnc(Cl)cc1OC(=O)c1ccccc1 [Example 328] |  |  |  |  |  |  |  |  |  |  | 3 (Growth inhibition rate; 51 to 70%) | 5 (Growth inhibition rate; 91 to 100%) | 5 (Growth inhibition rate; 91 to 100%) | 5 (Growth inhibition rate; 91 to 100%) | 3 (Growth inhibition rate; 51 to 70%) | 5 (Growth inhibition rate; 91 to 100%) | 3 (Growth inhibition rate; 51 to 70%) | 4 (Growth inhibition rate; 71 to 90%) | 0 (Growth inhibition rate; 0 to 10%) | 0 (Growth inhibition rate; 0 to 10%)
4 | Oc1cc(Cl)nnc1Oc1cccc2c1OCO2 [Example 192] |  |  |  |  |  |  |  |  |  |  | 2 (Growth inhibition rate; 31 to 50%) | 3 (Growth inhibition rate; 51 to 70%) | 5 (Growth inhibition rate; 91 to 100%) | 5 (Growth inhibition rate; 91 to 100%) | 5 (Growth inhibition rate; 91 to 100%) | 5 (Growth inhibition rate; 91 to 100%) | 2 (Growth inhibition rate; 31 to 50%) | 5 (Growth inhibition rate; 91 to 100%) | 0 (Growth inhibition rate; 0 to 10%) | 1 (Growth inhibition rate; 11 to 30%)
5 | Cc1cc(Oc2nnc(Cl)cc2O)cc(C(C)C)c1 [Example 282] | 5 (Growth inhibition rate; 91 to 100%) | 5 (Growth inhibition rate; 91 to 100%) | 4 (Growth inhibition rate; 71 to 90%) | 5 (Growth inhibition rate; 91 to 100%) | 3 (Growth inhibition rate; 51 to 70%) | 4 (Growth inhibition rate; 71 to 90%) | 0 (Growth inhibition rate; 0 to 10%) | 0 (Growth inhibition rate; 0 to 10%) | 0 (Growth inhibition rate; 0 to 10%) | 0 (Growth inhibition rate; 0 to 10%) |  |  |  |  |  |  |  |  |  | 
6 | Oc1cc(Cl)nnc1Oc1cccc2occc12 [Example 183] |  |  |  |  |  |  |  |  |  |  | 5 (Growth inhibition rate; 91 to 100%) | 5 (Growth inhibition rate; 91 to 100%) | 5 (Growth inhibition rate; 91 to 100%) | 5 (Growth inhibition rate; 91 to 100%) | 5 (Growth inhibition rate; 91 to 100%) | 5 (Growth inhibition rate; 91 to 100%) | 1 (Growth inhibition rate; 11 to 30%) | 2 (Growth inhibition rate; 31 to 50%) | 0 (Growth inhibition rate; 0 to 10%) | 0 (Growth inhibition rate; 0 to 10%)
7 | Oc1cc(Cl)nnc1Oc1cc(F)ccc1C1CC1 [Example 216] |  |  |  |  |  |  |  |  |  |  | 5 (Growth inhibition rate; 91 to 100%) | 5 (Growth inhibition rate; 91 to 100%) | 5 (Growth inhibition rate; 91 to 100%) | 5 (Growth inhibition rate; 91 to 100%) | 5 (Growth inhibition rate; 91 to 100%) | 5 (Growth inhibition rate; 91 to 100%) | 4 (Growth inhibition rate; 71 to 90%) | 4 (Growth inhibition rate; 71 to 90%) | 0 (Growth inhibition rate; 0 to 10%) | 2 (Growth inhibition rate; 31 to 50%)
8 | COc1ccccc1Oc1nnc(Cl)cc1O [Example 121] | 5 (Growth inhibition rate; 91 to 100%) | 5 (Growth inhibition rate; 91 to 100%) | 5 (Growth inhibition rate; 91 to 100%) | 5 (Growth inhibition rate; 91 to 100%) | 3 (Growth inhibition rate; 51 to 70%) | 4 (Growth inhibition rate; 71 to 90%) | 2 (Growth inhibition rate; 31 to 50%) | 3 (Growth inhibition rate; 51 to 70%) | 0 (Growth inhibition rate; 0 to 10%) | 0 (Growth inhibition rate; 0 to 10%) |  |  |  |  |  |  |  |  |  | 
9 | CSCc1c(C)ccc(C)c1Oc1nnc(Cl)cc1O [Example 303] | 3 (Growth inhibition rate; 51 to 70%) | 4 (Growth inhibition rate; 71 to 90%) | 5 (Growth inhibition rate; 91 to 100%) | 5 (Growth inhibition rate; 91 to 100%) | 3 (Growth inhibition rate; 51 to 70%) | 4 (Growth inhibition rate; 71 to 90%) | 0 (Growth inhibition rate; 0 to 10%) | 1 (Growth inhibition rate; 11 to 30%) | 0 (Growth inhibition rate; 0 to 10%) | 0 (Growth inhibition rate; 0 to 10%) |  |  |  |  |  |  |  |  |  | 
10 | Cc1ccc(S(=O)(=O)Oc2cc(Cl)nnc2Oc2ccccc2C2CC2)cc1 [Example 27] |  |  |  |  |  |  |  |  |  |  | 5 (Growth inhibition rate; 91 to 100%) | 5 (Growth inhibition rate; 91 to 100%) | 5 (Growth inhibition rate; 91 to 100%) | 5 (Growth inhibition rate; 91 to 100%) | 4 (Growth inhibition rate; 71 to 90%) | 5 (Growth inhibition rate; 91 to 100%) | 2 (Growth inhibition rate; 31 to 50%) | 4 (Growth inhibition rate; 71 to 90%) | 0 (Growth inhibition rate; 0 to 10%) | 0 (Growth inhibition rate; 0 to 10%)
11 | COc1cccc(F)c1Oc1nnc(Cl)cc1O [Example 239] |  |  |  |  |  |  |  |  |  |  |  | 5 (Growth inhibition rate; 91 to 100%) |  | 4 (Growth inhibition rate; 71 to 90%) |  | 5 (Growth inhibition rate; 91 to 100%) |  | 0 (Growth inhibition rate; 0 to 10%) |  | 0 (Growth inhibition rate; 0 to 10%)
12 | Oc1cc(Cl)nnc1Oc1ccccc1Br [Example 51] | 4 (Growth inhibition rate; 71 to 90%) | 5 (Growth inhibition rate; 91 to 100%) | 5 (Growth inhibition rate; 91 to 100%) | 5 (Growth inhibition rate; 91 to 100%) | 3 (Growth inhibition rate; 51 to 70%) | 5 (Growth inhibition rate; 91 to 100%) | 2 (Growth inhibition rate; 31 to 50%) | 2 (Growth inhibition rate; 31 to 50%) | 0 (Growth inhibition rate; 0 to 10%) | 0 (Growth inhibition rate; 0 to 10%) |  |  |  |  |  |  |  |  |  | 
